Assay results taken from publication PMC10060569 (Frontiers in Pharmacology, 2023).

Molecular target: T1, S15V-hP2X3R (Homo sapiens, UniProt P56373, S15V)
T1 construct: expressed in transfected cells; host or cells: Xenopus laevis oocytes (cRNA injection)
T1 sequence (P56373 1-397 S15V): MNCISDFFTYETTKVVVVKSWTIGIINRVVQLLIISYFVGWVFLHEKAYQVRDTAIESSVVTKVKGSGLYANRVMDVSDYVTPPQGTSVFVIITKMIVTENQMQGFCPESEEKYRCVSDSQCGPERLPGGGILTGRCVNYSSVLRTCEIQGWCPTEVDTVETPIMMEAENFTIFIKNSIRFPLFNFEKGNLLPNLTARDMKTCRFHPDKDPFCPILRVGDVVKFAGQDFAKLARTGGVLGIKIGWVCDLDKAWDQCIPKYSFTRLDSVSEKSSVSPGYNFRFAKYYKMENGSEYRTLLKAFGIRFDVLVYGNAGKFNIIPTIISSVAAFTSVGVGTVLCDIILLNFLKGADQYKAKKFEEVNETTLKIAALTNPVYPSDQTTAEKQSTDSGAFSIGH
Experiment: TEVC of ATP-induced currents, S15V-hP2X3R expressed in X. laevis oocytes (peak current protocol)
Type: cell-based
Conditions: for IC50: 30-s preincubation of antagonist, X. laevis oocytes, −60 mV, geometric mean
Source text: Oocyte expression plasmids encoding the wild-type (wt) and N-terminally His-tagged (His-) fusion constructs of the hP2X2R, hP2X3R, hP2X4R, and hP2X7R, and the mutant His-^20RMVL^23KVIV^23S^26N-hP2X1R, S^15V-rP2X3R, and His-S^15V-hP2X3R were the same as used in previous research ([Hausmann et al., 2006]; [Wolf et al., 2011]; [Hausmann et al., 2014]; [Obrecht et al., 2019]). In most cases, the N-terminal His-tagged variants of P2XRs were used here and in the previous studies to allow biochemical analyses on affinity-purified proteins using the same constructs. Although this was not required for the present study, it allows for better comparability with our previous studies. Capped cRNAs of different P2XRs were already available in the research group or were synthesized as previously described ([Schmalzing et al., 1991]; [Stolz et al., 2015]). cRNA was injected into collagenase-defolliculated X. laevis oocytes in aliquots of 41 nl or 23 nl (see Supplementary Table S1 for the amount of cRNA used for expression of the indicated P2XR) using a Nanoliter 2000 injector (World Precision Instruments, Sarasota, United States of America) as described previously ([Hausmann et al., 2014]; [Stolz et al., 2015]; [Obrecht et al., 2019]). To express the heteromeric hP2X2/3 receptor, cRNAs encoding His-hP2X2R and wt-hP2X3R were coinjected at a ratio (w/w) of 1:6. Oocytes were stored at 19°C in an oocyte ringer solution (ORi^+) containing 90 mM NaCl, 1 mM KCl, 1 mM CaCl2, 1 mM MgCl2, and 10 mM HEPES (Carl Roth, Karlsruhe, Germany) adjusted to pH 7.4 with NaOH and supplemented with 50 μg/ml gentamicin (AppliChem, Darmstadt, Germany). The procedures followed for the maintenance of and the surgical treatment for X. laevis adults were approved by the governmental animal care and use committee of the State Agency for Nature, Environment, and Consumer Protection (LANUV, Recklinghausen, Germany; reference no. 81-02.04.2019. A355), in compliance with Directive 2010/63/EU of the European Parliament and of the Council on the protection of animals used for scientific purpose.
Ion currents mediated by P2X receptors were evoked by the indicated concentration of ATP or α,β-meATP and were recorded 1 or 2 days after cRNA injection at ambient temperature at a holding potential of −60 mV by two-electrode voltage clamp (TEVC) as previously described ([Hausmann et al., 2006]). Calcium-free ORi^− solution (90 mM NaCl, 1 mM KCl, 2 mM MgCl2, 10 mM HEPES, pH 7.4) was used to avoid bias due to calcium-activated chloride channels (CaCC) endogenously expressed in X. laevis oocytes ([Miledi, 1982]; [Methfessel et al., 1986]). For recordings of wt-hP2X7R, the composition of the ORi^− solution was modified according to protocols described previously and contained 100 mM NaCl, 2.5 mM KCl, 1 mM MgCl2, 5 mM HEPES, pH 7.4 ([Klapperstück et al., 2000]). The oocytes were continuously superfused with ORi^− by gravity flow (5–10 ml/min). The agonists ATP or α,β-meATP and the investigated NSAIDs were diluted in ORi^− on the day of the recording. […] A peak current protocol (Supplementary Figure S1) was used to analyze fast- and intermediate desensitizing P2XR subtypes (P2X1R, P2X3R, and S^15V-P2X3R), and a steady-state protocol (Supplementary Figure S2) was used for slowly or partially desensitizing P2X subtypes (P2X2R, P2X2/3R, and P2X4R). For recordings of P2X7R, a modified steady-state protocol was used ([Hausmann et al., 2006]). The application of different bath solutions was controlled by computer-operated magnetic valves controlled by the CellWorks E 5.5.1 software (npi electronic, Tamm, Germany).
Antagonist concentration–response data and IC50 values were calculated by normalizing ATP-induced responses to the control responses (recorded in the presence and absence of the antagonist, respectively). […]

| Compound | IC50 (1 µM ATP) | inhibition at 1000 µM (1 mM antagonist, 1 µM ATP, mean ± SEM, read-out: Max. inhibition at 1 mM) | reversibility of the inhibitory effect by washout (subsequent control current after washout) | reduction of ATP-induced current amplitude at 100 µM antagonist (1 µM ATP) |
| --- | --- | --- | --- | --- |
| Cc1c(Nc2ncccc2C(=O)O)cccc1C(F)(F)F [Flunixin, flunixin] | 32.4 µM | 53% | not reversible |  |
| CC(C)Cc1ccc(C(C)C(=O)O)cc1 (stereo not drawn) [Ibuprofen, ibuprofen] | > 300 µM |  |  | 15%–18% |
| Cc1ccc(Cl)c(Nc2ccccc2C(=O)O)c1Cl [Meclofenamic acid, meclofenamic acid] | > 300 µM |  |  | 15%–18% |
| COc1ccc2cc([C@H](C)C(=O)O)ccc2c1 [Naproxen, naproxen] | > 300 µM |  |  | 15%–18% |
